Measured values reported in ChEMBL document CHEMBL1201862, “PubChem BioAssay data set” (2004).
The source made the active and inactive calls. For most assays here, no stated cut-off is given here; in the data, actives have a measured EC50 and inactives only a lower limit.

Key:
[1] = target: T1, Zinc finger protein mex-5 (Caenorhabditis elegans, UniProt Q9XUB2); assay: MEX-5/TCR-2 RNA interaction inhibitors, dose response, biochemical, C. elegans, fluorescence polarization (AID 1960)
T1 sequence (Q9XUB2 whole entry): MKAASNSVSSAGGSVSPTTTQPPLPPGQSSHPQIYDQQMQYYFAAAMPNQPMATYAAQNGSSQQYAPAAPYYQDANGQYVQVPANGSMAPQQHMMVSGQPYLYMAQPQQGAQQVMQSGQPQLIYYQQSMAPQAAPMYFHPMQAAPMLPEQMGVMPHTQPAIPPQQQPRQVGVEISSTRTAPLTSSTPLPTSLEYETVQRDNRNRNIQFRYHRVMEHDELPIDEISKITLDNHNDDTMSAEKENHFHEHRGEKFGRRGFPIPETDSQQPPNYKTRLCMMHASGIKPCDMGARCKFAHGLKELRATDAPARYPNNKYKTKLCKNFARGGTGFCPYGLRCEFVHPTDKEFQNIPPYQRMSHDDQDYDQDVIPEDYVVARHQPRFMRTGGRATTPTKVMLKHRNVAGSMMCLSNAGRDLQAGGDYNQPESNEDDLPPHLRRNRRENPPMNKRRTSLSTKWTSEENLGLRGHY

[2] = target: T2, RNA-binding protein pos-1 (Caenorhabditis elegans, UniProt G5EF15); assay: inhibitors of POS-1/mex-3 RNA binding, dose response, biochemical, fluorescence polarization (AID 1964);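 further: purified POS-1 fused to maltose binding protein made in E. coli; potency of compounds blocking POS-1 binding to fluorescent RNA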
T2 sequence (G5EF15 whole entry): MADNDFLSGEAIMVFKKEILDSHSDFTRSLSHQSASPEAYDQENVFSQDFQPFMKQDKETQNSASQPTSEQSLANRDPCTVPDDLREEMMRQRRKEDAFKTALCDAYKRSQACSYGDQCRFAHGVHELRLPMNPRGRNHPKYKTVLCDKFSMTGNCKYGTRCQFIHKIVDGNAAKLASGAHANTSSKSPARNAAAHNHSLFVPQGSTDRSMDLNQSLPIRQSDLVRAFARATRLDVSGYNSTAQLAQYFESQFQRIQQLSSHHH

Fatty acid synthase [3] = target: T3, Fatty acid synthase (Homo sapiens, UniProt P49327); assay: FAS thioesterase domain inhibitors, dose response, biochemical, endpoint fluorescence intensity, uHTS hits (AID 624327); format: functional;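 further: fluorescence from hydrolysis of an O-methyl fluorescein acyl ester substrate by the enzyme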
T3 sequence (P49327 whole entry, the tested form may be a part): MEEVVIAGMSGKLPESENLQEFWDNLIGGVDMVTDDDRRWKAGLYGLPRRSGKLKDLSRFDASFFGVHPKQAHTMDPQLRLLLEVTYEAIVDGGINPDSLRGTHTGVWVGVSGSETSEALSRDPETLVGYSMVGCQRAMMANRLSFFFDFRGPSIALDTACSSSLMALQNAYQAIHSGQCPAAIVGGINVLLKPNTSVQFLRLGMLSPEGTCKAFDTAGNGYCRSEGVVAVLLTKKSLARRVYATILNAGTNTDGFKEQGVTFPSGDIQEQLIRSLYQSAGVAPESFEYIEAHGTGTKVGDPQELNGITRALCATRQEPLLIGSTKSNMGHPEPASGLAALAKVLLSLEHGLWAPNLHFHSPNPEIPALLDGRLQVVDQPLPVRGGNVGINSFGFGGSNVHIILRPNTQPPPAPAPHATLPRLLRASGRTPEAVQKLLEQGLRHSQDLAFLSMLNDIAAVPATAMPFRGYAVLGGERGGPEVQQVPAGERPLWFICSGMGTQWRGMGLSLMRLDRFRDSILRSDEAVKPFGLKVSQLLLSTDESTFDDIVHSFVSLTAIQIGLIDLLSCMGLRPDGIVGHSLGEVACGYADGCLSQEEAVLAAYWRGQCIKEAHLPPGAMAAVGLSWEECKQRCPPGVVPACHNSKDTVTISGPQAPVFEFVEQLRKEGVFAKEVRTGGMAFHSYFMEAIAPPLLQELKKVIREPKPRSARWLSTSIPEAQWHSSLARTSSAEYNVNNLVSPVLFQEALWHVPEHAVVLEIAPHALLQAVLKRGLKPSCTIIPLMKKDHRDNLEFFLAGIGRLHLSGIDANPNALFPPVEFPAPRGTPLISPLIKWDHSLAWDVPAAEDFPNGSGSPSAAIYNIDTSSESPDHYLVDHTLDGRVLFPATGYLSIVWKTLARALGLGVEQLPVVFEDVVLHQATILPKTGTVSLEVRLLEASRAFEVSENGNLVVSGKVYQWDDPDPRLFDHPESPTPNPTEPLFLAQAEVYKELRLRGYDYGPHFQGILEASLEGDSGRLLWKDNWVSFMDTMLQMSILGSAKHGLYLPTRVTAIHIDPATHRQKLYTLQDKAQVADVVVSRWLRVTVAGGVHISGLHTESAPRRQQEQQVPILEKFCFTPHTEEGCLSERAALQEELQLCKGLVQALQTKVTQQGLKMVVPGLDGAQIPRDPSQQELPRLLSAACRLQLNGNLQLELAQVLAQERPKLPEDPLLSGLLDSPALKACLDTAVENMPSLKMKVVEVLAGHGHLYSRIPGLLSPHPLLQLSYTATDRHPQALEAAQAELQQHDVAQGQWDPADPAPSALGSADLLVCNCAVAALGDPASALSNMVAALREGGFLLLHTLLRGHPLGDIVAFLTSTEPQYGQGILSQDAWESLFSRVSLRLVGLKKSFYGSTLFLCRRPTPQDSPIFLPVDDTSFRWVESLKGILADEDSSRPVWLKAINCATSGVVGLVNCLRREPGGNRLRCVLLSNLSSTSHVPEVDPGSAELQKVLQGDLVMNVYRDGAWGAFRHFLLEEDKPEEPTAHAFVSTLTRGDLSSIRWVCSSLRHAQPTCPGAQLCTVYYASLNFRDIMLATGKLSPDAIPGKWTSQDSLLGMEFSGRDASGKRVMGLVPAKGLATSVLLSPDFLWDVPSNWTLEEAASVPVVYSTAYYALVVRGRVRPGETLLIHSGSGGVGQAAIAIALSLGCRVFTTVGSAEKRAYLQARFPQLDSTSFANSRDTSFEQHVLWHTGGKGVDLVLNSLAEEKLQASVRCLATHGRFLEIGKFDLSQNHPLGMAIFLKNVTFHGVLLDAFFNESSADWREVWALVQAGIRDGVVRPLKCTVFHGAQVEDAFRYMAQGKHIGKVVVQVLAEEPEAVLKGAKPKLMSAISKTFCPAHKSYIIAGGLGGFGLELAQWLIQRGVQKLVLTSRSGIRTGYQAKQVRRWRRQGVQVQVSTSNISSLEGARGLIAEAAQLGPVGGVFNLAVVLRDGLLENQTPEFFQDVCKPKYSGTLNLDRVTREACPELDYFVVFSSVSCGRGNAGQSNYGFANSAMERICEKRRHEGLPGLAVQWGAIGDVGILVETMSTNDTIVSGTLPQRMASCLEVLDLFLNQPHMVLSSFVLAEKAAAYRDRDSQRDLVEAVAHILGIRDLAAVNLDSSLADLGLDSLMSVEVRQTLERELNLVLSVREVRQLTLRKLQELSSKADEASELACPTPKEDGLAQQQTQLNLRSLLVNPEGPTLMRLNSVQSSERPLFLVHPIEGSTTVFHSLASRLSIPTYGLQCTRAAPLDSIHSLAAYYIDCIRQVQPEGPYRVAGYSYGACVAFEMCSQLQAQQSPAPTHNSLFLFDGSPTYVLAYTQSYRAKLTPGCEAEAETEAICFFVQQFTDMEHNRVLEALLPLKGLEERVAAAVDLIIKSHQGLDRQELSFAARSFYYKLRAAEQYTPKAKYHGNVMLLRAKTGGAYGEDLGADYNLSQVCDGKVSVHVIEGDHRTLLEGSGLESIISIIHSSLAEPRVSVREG

Fatty acid synthase [4] = target: T3, Fatty acid synthase; assay: FAS thioesterase domain inhibitors, dose response, biochemical, kinetic fluorescence intensity (AID 624326); format: functional;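 further: rate of fluorescence rise from hydrolysis of a fluorogenic O-methyl fluorescein ester substrate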
[5] = target: T4, Heat shock factor protein 1 (Mus musculus, UniProt P38532); assay: inhibition of MG132-induced HSE-luciferase signal, confirmation, cell-based, NIH3T3, luminescence, dose retest (AID 2382); format: functional;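 further: NIH3T3 fibroblasts with HSF1-driven luciferase reporter stressed by proteasome inhibitor MG132; luminescence from HSF1-driven luciferase expression after 8 hours of MG132 stress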
T4 sequence (P38532 whole entry): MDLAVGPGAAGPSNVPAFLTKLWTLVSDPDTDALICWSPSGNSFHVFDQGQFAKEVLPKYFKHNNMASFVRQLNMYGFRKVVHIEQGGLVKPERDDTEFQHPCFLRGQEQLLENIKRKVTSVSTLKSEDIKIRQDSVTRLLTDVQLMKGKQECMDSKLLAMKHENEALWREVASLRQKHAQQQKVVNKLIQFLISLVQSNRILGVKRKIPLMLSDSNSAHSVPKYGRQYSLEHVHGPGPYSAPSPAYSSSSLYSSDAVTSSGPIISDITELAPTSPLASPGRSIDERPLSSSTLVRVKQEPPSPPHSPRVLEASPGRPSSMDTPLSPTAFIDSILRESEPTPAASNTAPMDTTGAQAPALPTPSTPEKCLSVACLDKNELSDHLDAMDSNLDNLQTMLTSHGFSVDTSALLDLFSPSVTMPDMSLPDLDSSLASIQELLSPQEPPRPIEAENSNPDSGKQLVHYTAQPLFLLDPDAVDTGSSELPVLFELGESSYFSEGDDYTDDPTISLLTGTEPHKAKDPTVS

BJ [6] = assay: cytotoxicity toward BJ-TERT-LT-ST fibroblasts, dose response, cell-based, RAS-independent, luminescence (AID 1935); format: functional; settings: Homo sapiens;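 further: BJ fibroblasts immortalized with TERT plus LT and ST oncogenes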
[7] = inhibitors of firefly luciferase expression or activity, dose response, H4 neuroglioma cells, luminescence (AID 1990); format: functional, cell-based
[8] = cytotoxicity toward DRD oncogenic fibroblasts, dose response, cell-based, non-viral oncogenic, luminescence (AID 1934); format: functional; settings: Homo sapiens
[9] = Luminescence Cell-Based Dose Response HTS to Identify Inhibitors of 5'UTR Stem-Loop Driven Prion Protein mRNA Translation in H4 Neuroglioblastoma Cells. [Related pubchem assays: 1827 (Project Summary), 1813 (Primary HTS)]; format: functional
BJ [10] = assay: cells; format: functional, cell-based; settings: Homo sapiens
Paired box protein Pax-8 = Paired box protein Pax-8 (Homo sapiens, UniProt Q06710); assay: inhibitors of PAX8-driven TPO luciferase reporter, dose response, RMG-I cells, cherry-pick (AID 687027); format: functional, cell-based;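 further: luciferase reporter driven by Pax8 target thyroperoxidase promoter measured by SteadyGlo luminescence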
Sequence of Paired box protein Pax-8 (Q06710 whole entry): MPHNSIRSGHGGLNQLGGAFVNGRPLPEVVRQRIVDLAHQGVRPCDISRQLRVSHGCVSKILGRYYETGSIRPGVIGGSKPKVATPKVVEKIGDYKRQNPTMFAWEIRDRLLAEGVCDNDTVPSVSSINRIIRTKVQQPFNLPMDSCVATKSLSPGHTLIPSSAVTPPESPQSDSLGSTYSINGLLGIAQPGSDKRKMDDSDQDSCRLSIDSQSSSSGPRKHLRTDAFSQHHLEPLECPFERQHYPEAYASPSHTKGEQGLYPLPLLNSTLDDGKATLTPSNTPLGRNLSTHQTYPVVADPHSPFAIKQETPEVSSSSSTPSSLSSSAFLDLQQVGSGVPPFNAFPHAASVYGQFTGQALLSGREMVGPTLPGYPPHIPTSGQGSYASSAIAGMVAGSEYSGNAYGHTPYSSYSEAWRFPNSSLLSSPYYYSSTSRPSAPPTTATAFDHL

[11] = cytotoxicity in HEK-293T cells, dose response, cytotoxicity control for TCR NF-kB inhibitor project, luminescence, T-cell screen hits (AID 489026); format: functional, cell-based;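 further: cells exposed to compound about 14 hours before the viability readout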
[12] = inhibitors of SNCA 5'UTR-driven reporter translation, confirmation, H4 neuroglioma cells, luminescence (AID 1988); format: functional, cell-based
BJ [13] = assay: cytotoxicity toward BJ-TERT fibroblasts, dose response, cell-based, RAS-independent, luminescence (AID 1933); format: functional; settings: Homo sapiens
INS1 = assay: beta cell apoptosis inhibitors, cytokine rescue, dose response, luminescence, retest (AID 449756); format: functional, cell-based; settings: Rattus norvegicus;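 further: cell death triggered by IL-1 beta plus TNF-alpha plus IFN-gamma mixture; protective hits raise ATP signal compared with cytokine alone wells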
[14] = microbe, parasite or virus in culture; format: functional; settings: Mycobacterium tuberculosis

| SMILES | EC50 [1] | EC50 [2] | IC50 (Fatty acid synthase [3]) | IC50 (Fatty acid synthase [4]) | also measured |
| --- | --- | --- | --- | --- | --- |
| COC(=O)c1c(O)[n+]([O-])c2ccc(OC)cc2[n+]1[O-] | > 300 µM (inconclusive) | 14.1 µM (active) |  |  |  |
| O=C(CC1C[C@H](C(=O)N2CCOCC2)[C@@]2(CCC3CCCC3)c3[nH]c4ccccc4c3CCN2C1=O)NCCc1ccccn1 (stereo partly drawn) |  |  | 1.37 µM (active) | 1.09 µM (active) |  |
| Cc1cc(=O)n2c(n1)/C(=N\Nc1ccccc1)C(=O)N2 |  | 0.374 µM (inconclusive) |  |  | EC50 [5]: > 195 µM (not active) |
| CC(C)(C)c1ccc(/C=N/NC(=S)NC2CCCCC2)cc1 |  |  | 12.7 µM (active) | 15.4 µM (active) |  |
| O=C(N/N=C/c1ccc(Br)o1)/C(=C/c1ccc([N+](=O)[O-])cc1)NC(=O)c1ccccc1 |  |  | 9.86 µM (active) | 10.8 µM (active) |  |
| Cc1ccc(C(=O)c2cc([N+](=O)[O-])ccc2N2CCCCC2)cc1 |  |  |  |  | EC50 (BJ [6]): 0.576 µM (inconclusive); EC50 [7]: 0.129 µM (active); EC50 [8]: 1.21 µM (active); EC50 [9]: 0.303 µM (active); EC50 (BJ [10]): 82.5 µM (inconclusive); AC50 (Paired box protein Pax-8): 3.39 µM (active); IC50 [11]: > 80 µM (inactive); EC50 [12]: < 0.1 µM (active); EC50 (BJ [13]): 0.493 µM (inconclusive) |
| CC1=N/C(=C/c2ccco2)C(=O)O1 | 33.1 µM (active) | 71.1 µM (active) |  |  |  |
| CCCCC1=CC2=CC(=O)C(C)(O)C(=O)C2=CO1 (stereo not drawn) | 23.5 µM (active) | 55.3 µM (active) |  |  |  |
| O=C1C([N-]S(=O)(=O)c2cccs2)=C([n+]2ccc(CCCc3ccccc3)cc2)C(=O)c2ccccc21 | 97 µM (active) | 119 µM (active) |  |  | EC50 [7]: 10.5 µM (active); EC50 [9]: > 120 µM (not active); AC50 (INS1): 8.75 µM (active); EC50 [12]: 8.36 µM (active); CC50 [14]: 9.69 µM (active) |
| Cc1ccc(NC(=O)c2cc([N+](=O)[O-])ccc2N2CCCC2)cc1 |  |  | 8.09 µM (active) | 5.53 µM (active) |  |
| C[C@H](CO)N1C[C@H](C)[C@@H](CN(C)Cc2ccc(Cl)c(Cl)c2)Oc2c(NS(=O)(=O)c3ccc(F)cc3)cccc2C1=O |  |  | 11.9 µM (active) | 13.2 µM (active) |  |
| CCOc1ccc(C(=O)COC(=O)c2cc([N+](=O)[O-])ccc2N2CCOCC2)cc1 |  |  | 6.76 µM (active) | 5.81 µM (active) |  |
| Cc1ccc(-c2nnc(Nc3ccc(CC(N)=O)cc3)c3ccccc23)cc1S(N)(=O)=O | > 300 µM (not active) | > 300 µM (not active) |  |  |  |
